Read-outs that look alike come from different tables or passages of the source.
Columns and labels:
CDK18/Cyclin Y = CDK18/Cyclin Y (Homo sapiens, UniProt Q07002); experiment: NanoBRET live-cell target engagement, CDK18-NanoLuc/Cyclin Y in HEK-293; assay type: binding; details: CDK18/Y, read-out: Inhibition at 10µM (%)
CDK11A/Cyclin L2 = target: T1, CDK11A/Cyclin L2 (Homo sapiens, UniProt Q9UQ88); experiment: NanoBRET live-cell target engagement, CDK11A-NanoLuc/Cyclin L2 in HEK-293; assay type: binding; details: CDK11a/L2, read-out: Inhibition at 10µM (%)
T1 sequence (Q9UQ88 1-783): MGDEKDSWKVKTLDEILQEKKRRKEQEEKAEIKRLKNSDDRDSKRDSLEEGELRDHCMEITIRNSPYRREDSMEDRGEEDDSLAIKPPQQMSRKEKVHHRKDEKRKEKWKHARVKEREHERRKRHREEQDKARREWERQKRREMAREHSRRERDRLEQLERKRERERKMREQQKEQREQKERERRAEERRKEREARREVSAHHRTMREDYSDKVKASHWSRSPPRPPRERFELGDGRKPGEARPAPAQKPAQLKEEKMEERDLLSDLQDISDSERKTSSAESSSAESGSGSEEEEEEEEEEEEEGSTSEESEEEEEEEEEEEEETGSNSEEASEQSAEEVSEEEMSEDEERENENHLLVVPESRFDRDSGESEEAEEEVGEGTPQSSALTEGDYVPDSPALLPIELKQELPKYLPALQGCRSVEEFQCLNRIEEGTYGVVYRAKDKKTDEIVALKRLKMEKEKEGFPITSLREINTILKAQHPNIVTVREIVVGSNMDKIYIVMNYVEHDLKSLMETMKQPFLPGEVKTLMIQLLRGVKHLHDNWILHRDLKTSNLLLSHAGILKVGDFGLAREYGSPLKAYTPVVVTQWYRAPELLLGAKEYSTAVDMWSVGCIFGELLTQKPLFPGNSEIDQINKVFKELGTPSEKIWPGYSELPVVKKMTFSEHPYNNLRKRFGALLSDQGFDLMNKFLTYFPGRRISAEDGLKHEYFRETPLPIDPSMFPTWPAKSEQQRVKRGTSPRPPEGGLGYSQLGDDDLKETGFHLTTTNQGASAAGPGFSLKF

CDK17/Cyclin Y = CDK17/Cyclin Y (Homo sapiens, UniProt Q00537); experiment: NanoBRET live-cell target engagement, CDK17-NanoLuc/Cyclin Y in HEK-293; assay type: binding
CDK14/Cyclin Y = CDK14/Cyclin Y (Homo sapiens, UniProt O94921); experiment: NanoBRET live-cell target engagement, CDK14-NanoLuc/Cyclin Y in HEK-293; assay type: binding; details: CDK14/Y, read-out: Inhibition at 10µM (%)
CDK5/CDK5R1 = CDK5/CDK5R1 (Homo sapiens, UniProt Q00535); experiment: NanoBRET live-cell target engagement, CDK5-NanoLuc/CDK5R1 in HEK-293; assay type: binding; details: CDK5/CDK5R1, read-out: Inhibition at 10µM (%)
CDK12/Cyclin K = CDK12/Cyclin K (Homo sapiens, UniProt Q9NYV4); experiment: NanoBRET live-cell target engagement, CDK12-NanoLuc/Cyclin K in HEK-293; assay type: binding; details: CDK12/K, read-out: Inhibition at 10µM (%)
CDK20/Cyclin H = CDK20/Cyclin H (Homo sapiens, UniProt Q8IZL9); experiment: NanoBRET live-cell target engagement, NanoLuc-CDK20/Cyclin H in HEK-293; assay type: binding; details: CDK20/H, read-out: Inhibition at 10µM (%)
CDK16/Cyclin Y = CDK16/Cyclin Y (Homo sapiens, UniProt Q00536); experiment: NanoBRET live-cell target engagement, CDK16-NanoLuc/Cyclin Y in HEK-293; assay type: binding; details: CDK16/Y, read-out: Inhibition at 10µM (%)
CDK10/Cyclin L2 = CDK10/Cyclin L2 (Homo sapiens, UniProt Q15131); experiment: NanoBRET live-cell target engagement, CDK10-NanoLuc/Cyclin L2 in HEK-293; details: read-out: Inhibition at 10µM (%), CDK10/L2
CDK13/Cyclin K = CDK13/Cyclin K (Homo sapiens, UniProt Q14004); experiment: NanoBRET live-cell target engagement, CDK13-NanoLuc/Cyclin K in HEK-293; assay type: binding; details: CDK13/K, read-out: Inhibition at 10µM (%)
CDK15/Cyclin Y = CDK15/Cyclin Y (Homo sapiens, UniProt Q96Q40); experiment: NanoBRET live-cell target engagement, NanoLuc-CDK15/Cyclin Y in HEK-293; assay type: binding; details: CDK15/Y, read-out: Inhibition at 10µM (%)
CDK11B/Cyclin L2 = CDK11B/Cyclin L2 (Homo sapiens, UniProt P21127); experiment: NanoBRET live-cell target engagement, CDK11B-NanoLuc/Cyclin L2 in HEK-293; assay type: binding; details: CDK11b/L2, read-out: Inhibition at 10µM (%)
CDK4/Cyclin D1 = CDK4/Cyclin D1 (Homo sapiens, UniProt P11802); experiment: NanoBRET live-cell target engagement, NanoLuc-CDK4/Cyclin D1 in HEK-293; assay type: binding; details: CDK4/D1, read-out: Inhibition at 10µM (%)
all 21 human CDKs = experiment: Live-cell selectivity profile across all 21 CDK/cyclin complexes in HEK-293; assay type: binding; details: live cells
CDK8/Cyclin C = CDK8/Cyclin C (Homo sapiens, UniProt P49336); experiment: NanoBRET live-cell target engagement, NanoLuc-CDK8/Cyclin C in HEK-293; assay type: binding; details: CDK8/C, read-out: Inhibition at 10µM (%)
CDK19/Cyclin C = CDK19/Cyclin C (Homo sapiens, UniProt Q9BWU1); experiment: NanoBRET live-cell target engagement, NanoLuc-CDK19/Cyclin C in HEK-293; details: read-out: Inhibition at 10µM (%), CDK19/C

Chain of CDK12/Cyclin K (Q9NYV4 1-1481 isoform Q9NYV4-2): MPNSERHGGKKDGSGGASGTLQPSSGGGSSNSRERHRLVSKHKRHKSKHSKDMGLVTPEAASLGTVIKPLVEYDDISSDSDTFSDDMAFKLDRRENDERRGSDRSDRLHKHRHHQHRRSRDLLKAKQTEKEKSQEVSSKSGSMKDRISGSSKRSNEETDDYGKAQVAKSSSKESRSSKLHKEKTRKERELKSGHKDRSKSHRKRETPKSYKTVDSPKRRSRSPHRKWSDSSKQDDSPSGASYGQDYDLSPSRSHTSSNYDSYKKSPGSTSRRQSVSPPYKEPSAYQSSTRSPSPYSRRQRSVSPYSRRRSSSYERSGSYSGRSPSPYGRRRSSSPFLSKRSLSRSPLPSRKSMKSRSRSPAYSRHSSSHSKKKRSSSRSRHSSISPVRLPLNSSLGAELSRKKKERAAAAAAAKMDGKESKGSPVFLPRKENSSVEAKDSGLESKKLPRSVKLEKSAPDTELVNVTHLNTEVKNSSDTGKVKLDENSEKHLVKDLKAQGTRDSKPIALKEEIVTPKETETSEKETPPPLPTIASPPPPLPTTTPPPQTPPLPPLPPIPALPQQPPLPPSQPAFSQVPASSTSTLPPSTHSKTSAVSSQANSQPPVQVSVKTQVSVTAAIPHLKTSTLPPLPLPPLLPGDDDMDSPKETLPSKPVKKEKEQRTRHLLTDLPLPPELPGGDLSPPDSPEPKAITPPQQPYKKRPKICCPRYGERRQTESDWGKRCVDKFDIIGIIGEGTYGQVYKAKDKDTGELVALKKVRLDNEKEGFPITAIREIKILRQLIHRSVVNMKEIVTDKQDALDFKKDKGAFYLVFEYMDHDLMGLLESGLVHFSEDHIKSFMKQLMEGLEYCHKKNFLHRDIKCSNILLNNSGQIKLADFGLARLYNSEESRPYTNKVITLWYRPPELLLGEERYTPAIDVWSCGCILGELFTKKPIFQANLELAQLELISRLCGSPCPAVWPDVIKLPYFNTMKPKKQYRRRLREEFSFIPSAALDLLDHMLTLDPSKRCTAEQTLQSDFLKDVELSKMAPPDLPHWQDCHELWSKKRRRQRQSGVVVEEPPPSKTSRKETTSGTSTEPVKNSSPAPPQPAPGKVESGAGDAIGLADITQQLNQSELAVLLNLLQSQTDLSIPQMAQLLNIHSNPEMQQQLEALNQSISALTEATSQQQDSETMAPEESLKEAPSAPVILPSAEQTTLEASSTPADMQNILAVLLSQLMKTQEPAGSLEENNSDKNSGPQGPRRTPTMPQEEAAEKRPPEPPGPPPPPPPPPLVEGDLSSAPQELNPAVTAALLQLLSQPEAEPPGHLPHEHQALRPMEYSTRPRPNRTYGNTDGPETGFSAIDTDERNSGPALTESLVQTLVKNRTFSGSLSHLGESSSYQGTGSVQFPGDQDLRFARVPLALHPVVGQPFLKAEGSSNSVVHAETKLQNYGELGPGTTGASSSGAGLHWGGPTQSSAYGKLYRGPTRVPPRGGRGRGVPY
Chain of CDK12/Cyclin K (O75909 whole entry partner): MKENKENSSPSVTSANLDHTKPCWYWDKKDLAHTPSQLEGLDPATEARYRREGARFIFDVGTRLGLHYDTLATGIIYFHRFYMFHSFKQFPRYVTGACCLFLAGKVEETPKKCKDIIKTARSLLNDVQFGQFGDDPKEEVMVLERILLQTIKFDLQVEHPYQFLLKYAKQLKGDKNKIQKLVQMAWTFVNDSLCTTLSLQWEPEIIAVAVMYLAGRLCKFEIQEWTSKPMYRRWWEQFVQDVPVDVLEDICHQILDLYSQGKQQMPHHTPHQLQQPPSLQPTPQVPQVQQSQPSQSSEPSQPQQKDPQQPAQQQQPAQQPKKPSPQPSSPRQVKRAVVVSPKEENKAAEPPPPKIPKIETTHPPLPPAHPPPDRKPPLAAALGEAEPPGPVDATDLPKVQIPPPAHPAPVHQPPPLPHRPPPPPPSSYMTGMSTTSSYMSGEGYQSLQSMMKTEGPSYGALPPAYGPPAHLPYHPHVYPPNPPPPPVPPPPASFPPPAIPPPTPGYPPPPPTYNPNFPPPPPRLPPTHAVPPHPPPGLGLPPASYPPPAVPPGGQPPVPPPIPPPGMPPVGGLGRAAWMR
Chain of CDK10/Cyclin L2 (Q15131 whole entry): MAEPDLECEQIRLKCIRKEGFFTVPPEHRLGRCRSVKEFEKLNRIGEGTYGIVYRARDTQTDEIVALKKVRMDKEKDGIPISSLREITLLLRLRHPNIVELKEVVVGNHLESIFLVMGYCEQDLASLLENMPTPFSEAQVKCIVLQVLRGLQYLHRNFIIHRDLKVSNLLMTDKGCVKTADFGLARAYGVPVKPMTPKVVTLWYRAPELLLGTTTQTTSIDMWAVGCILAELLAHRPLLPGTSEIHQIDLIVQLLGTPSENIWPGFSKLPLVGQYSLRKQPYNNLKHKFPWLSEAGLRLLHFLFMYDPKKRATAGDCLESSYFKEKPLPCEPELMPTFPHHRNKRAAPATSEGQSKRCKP
Chain of CDK18/Cyclin Y (Q07002 whole entry): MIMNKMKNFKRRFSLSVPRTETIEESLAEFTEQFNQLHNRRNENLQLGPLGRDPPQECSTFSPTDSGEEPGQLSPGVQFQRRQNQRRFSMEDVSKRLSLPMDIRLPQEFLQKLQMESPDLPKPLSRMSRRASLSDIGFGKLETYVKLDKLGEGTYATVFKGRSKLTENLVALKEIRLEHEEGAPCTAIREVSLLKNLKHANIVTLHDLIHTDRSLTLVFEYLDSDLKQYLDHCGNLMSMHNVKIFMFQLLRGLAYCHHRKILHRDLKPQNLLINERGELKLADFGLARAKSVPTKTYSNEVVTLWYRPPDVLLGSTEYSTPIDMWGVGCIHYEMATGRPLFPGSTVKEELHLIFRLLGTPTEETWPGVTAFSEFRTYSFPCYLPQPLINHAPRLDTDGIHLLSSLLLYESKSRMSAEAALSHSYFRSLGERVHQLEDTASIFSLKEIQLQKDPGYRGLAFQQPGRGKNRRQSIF
Chain of CDK18/Cyclin Y (Q8ND76 whole entry partner): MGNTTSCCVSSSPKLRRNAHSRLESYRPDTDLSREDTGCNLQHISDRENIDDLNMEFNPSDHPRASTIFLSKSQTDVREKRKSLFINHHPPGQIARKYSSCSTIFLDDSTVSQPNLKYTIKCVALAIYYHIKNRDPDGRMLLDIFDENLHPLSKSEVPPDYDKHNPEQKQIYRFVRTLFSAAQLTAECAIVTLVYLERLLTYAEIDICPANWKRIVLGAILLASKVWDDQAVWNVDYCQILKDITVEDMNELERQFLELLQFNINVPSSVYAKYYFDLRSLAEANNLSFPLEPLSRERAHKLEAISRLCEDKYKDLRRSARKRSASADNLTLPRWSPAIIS
Chain of CDK13/Cyclin K (O75909 whole entry): as the sequence (O75909 whole entry partner) above
Chain of CDK13/Cyclin K (Q14004 other isoform, or with tags, fused parts or gaps): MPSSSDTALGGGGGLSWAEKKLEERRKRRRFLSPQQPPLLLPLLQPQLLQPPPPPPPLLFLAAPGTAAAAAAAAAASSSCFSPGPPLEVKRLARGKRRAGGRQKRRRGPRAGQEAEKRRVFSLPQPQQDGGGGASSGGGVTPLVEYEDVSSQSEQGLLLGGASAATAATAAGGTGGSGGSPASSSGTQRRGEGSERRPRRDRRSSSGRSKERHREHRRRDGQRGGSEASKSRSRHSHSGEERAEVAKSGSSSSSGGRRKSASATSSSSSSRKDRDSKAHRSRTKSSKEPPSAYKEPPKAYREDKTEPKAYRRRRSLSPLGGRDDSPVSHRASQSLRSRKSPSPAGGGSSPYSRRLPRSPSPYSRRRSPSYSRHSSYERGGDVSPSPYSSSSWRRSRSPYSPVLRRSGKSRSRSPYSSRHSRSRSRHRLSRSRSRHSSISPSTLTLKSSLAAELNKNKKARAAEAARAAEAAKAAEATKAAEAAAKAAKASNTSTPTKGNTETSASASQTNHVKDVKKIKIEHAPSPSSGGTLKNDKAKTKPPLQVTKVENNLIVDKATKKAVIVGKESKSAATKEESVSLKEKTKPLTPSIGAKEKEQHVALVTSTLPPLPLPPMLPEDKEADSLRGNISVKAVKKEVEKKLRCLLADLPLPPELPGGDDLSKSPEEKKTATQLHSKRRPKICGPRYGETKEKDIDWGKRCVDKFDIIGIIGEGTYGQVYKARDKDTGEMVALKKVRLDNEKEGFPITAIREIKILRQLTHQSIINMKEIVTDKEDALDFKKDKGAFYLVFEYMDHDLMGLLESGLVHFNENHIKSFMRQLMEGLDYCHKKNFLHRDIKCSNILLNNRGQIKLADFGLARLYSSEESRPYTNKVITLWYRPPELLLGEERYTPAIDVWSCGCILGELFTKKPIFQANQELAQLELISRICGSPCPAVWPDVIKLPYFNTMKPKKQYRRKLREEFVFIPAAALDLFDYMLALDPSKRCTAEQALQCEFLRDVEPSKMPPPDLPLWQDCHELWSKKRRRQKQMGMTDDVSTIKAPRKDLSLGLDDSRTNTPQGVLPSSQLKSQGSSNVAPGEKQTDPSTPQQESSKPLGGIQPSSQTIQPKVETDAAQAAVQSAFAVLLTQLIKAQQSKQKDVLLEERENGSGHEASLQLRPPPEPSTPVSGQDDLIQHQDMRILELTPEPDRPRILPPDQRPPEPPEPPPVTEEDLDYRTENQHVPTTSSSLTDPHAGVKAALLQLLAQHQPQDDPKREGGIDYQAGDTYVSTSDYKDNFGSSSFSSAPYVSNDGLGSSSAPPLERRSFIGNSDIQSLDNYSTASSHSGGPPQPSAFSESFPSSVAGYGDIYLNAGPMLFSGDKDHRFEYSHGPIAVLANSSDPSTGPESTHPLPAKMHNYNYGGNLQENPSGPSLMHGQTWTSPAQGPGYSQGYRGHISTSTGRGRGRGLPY

CC(C)(C)c1nc(-c2cccc(NS(=O)(=O)c3c(F)cccc3F)c2F)c(-c2ccnc(N)n2)s1 [Dabrafenib]
inhibition at 10 µM (CDK18/Cyclin Y; average): 8.1%
inhibition at 10 µM (CDK18/Cyclin Y; experiment 1): 1.7%
inhibition at 10 µM (CDK18/Cyclin Y; experiment 2): 14.5%
inhibition at 10 µM (CDK11A/Cyclin L2; average): 9.5%
inhibition at 10 µM (CDK11A/Cyclin L2; experiment 1): 2.1%
inhibition at 10 µM (CDK11A/Cyclin L2; experiment 2): 16.8%
inhibition at 10 µM (CDK17/Cyclin Y; CDK17/Y, average, read-out: Inhibition at 10µM (%)): 10.2%
inhibition at 10 µM (CDK17/Cyclin Y; CDK17/Y, experiment 2, read-out: Inhibition at 10µM (%)): 4%
inhibition at 10 µM (CDK17/Cyclin Y; read-out: Inhibition at 10µM (%), CDK17/Y, experiment 1): 16.4%
inhibition at 10 µM (CDK14/Cyclin Y; average): 0.0911%
inhibition at 10 µM (CDK14/Cyclin Y; experiment 1): 0.459%
inhibition at 10 µM (CDK14/Cyclin Y; experiment 2): -0.277%
inhibition at 10 µM (CDK5/CDK5R1; average): -2.2%
inhibition at 10 µM (CDK5/CDK5R1; experiment 1): -4.1%
inhibition at 10 µM (CDK5/CDK5R1; experiment 2): -0.278%
inhibition at 10 µM (CDK12/Cyclin K; average): 20.2%
inhibition at 10 µM (CDK12/Cyclin K; experiment 1): 5.9%
inhibition at 10 µM (CDK12/Cyclin K; experiment 2): 34.6%
inhibition at 10 µM (CDK20/Cyclin H; experiment 1): 13.5%
inhibition at 10 µM (CDK20/Cyclin H; experiment 2): 6.7%
inhibition at 10 µM (CDK16/Cyclin Y; experiment 1): 1.4%
inhibition at 10 µM (CDK16/Cyclin Y; experiment 2): -3.4%
inhibition at 10 µM (CDK10/Cyclin L2; average): 12.7%
inhibition at 10 µM (CDK10/Cyclin L2; experiment 1): 3%
inhibition at 10 µM (CDK10/Cyclin L2; experiment 2): 22.4%
inhibition at 10 µM (CDK13/Cyclin K; average): 10.9%
inhibition at 10 µM (CDK13/Cyclin K; experiment 1): 7.1%
inhibition at 10 µM (CDK13/Cyclin K; experiment 2): 14.7%
inhibition at 10 µM (CDK15/Cyclin Y; average): 14.6%
inhibition at 10 µM (CDK15/Cyclin Y; experiment 1): 4.4%
inhibition at 10 µM (CDK15/Cyclin Y; experiment 2): 24.7%
inhibition at 10 µM (CDK11B/Cyclin L2; average): 4.4%
inhibition at 10 µM (CDK11B/Cyclin L2; experiment 1): 2.7%
inhibition at 10 µM (CDK11B/Cyclin L2; experiment 2): 6%
inhibition at 10 µM (CDK4/Cyclin D1; average): 21.4%
inhibition at 10 µM (CDK4/Cyclin D1; experiment 1): 5.4%
inhibition at 10 µM (CDK4/Cyclin D1; experiment 2): 37.4%
engagement of CDKs at concentrations up to 10μM (all 21 human CDKs): only weakly engaged
inhibition at 10 µM (CDK8/Cyclin C; average): -1.9%
inhibition at 10 µM (CDK8/Cyclin C; experiment 1): -1.4%
inhibition at 10 µM (CDK8/Cyclin C; experiment 2): -2.4%
inhibition at 10 µM (CDK19/Cyclin C; average): -6.6%
inhibition at 10 µM (CDK19/Cyclin C; experiment 1): 0.8%
inhibition at 10 µM (CDK19/Cyclin C; experiment 2): -14%
